The values below come from patent publication US9851358B2, “Methods and pharmaceutical compositions for preventing or reducing metastatic dissemination” (INSERM (Institut National de la Sante et de la Recherche …, priority 2014, dated 2017).

The subject of series [1] is MDA-MB-231 cells. Briefly: Membrane fluidity by EPR (S parameter), MDA-MB-231. The conditions noted are these: MDA-MB-231, pretreatment with non-cytotoxic dose. In kind it is cell-based, human. Here is the method: (§1) Membrane fluidity was determined by a spin-labeling method using EPR, as previously described^27. Briefly, plasma membranes of living cells were labeled by incubating cells for 15 min at 37° C. with 12-doxyl stearic acid (36 μg/mL), a fatty acid with a stable nitroxide radical ring at the C-12 position. Cells were then washed twice with PBS to remove excess 12-doxyl stearic acid and EPR spectra of the labeled samples were acquired at ambient temperature on a Bruker Elexsys EPR spectrometer operating at 3509.25 G center field, 20 mW microwave power, 9.86 GHz microwave frequency, 1.77 G modulation amplitude, and 100 kHz modulation frequency. Fluidity of the spin-labeled membranes was quantified by calculating the S parameter. An increase in the S parameter reflects a decrease in membrane fluidity, and vice versa.

In series [2] the test system is MDA-MB-231 cells. Briefly: Boyden chamber cell migration, MDA-MB-231. The class given is cell-based, human. The conditions noted are these: MDA-MB-231, pretreatment with non-cytotoxic dose, cl-CD95L. On the procedure:
(§2) Boyden chambers contained membranes with a pore size of 8 μm (Millipore, Molsheim, France). After hydration of the membranes, mesenchymal cells (10^5 cells per chamber) or epithelial cells (3×10^5 cells per chamber) were added to the top chamber in low serum (1%)-containing medium. The bottom chamber was filled with low serum (1%)-containing medium in the presence or absence of cl-CD95L (100 ng/mL). Cells were cultured for 24 h at 37° C. To quantify migration, cells were mechanically removed from the top side of the membrane using a cotton-tipped swab, and migrating cells from the reverse side were fixed with methanol and stained with Giemsa. For each experiment, five representative pictures were taken for each insert, then cells were lyzed and absorbance at 560 nm correlated to the amount of Giemsa stain was measured.

For the next series, the system named is lung cancer cells. The conditions noted are these: via activation of protein phosphatase 2A; cited from earlier work.
Series [3] deals with mesenchymal breast cancer cells. Briefly: Boyden chamber cell migration, mesenchymal breast cancer cells. The conditions noted are these: non-cytotoxic concentration; for basal migration: Boyden chamber 24 h; for CD95-mediated migration: cl-CD95L 100 ng/mL 24 h, Boyden chamber. In kind it is cell-based, human. On the procedure: FIG. 1. Treatment of mesenchymal breast cancer cells with a non-toxic amount of exogenous C16:0 ceramide reduces plasma membrane fluidity and prevents basal and CD95-mediated cell migration. A. The indicated cells were pre-incubated with or without a non-cytotoxic dose (1 μM) of C16:0 ceramide (C16-Cer) for 60 min, and were then incubated with or without cl-CD95L (100 ng/mL) for 30 min. Membrane fluidity was assessed by EPR. Values are means±SEM of four independent experiments (*, p<0.05; ns, not significant). B. Indicated cells were pretreated with or without C16:0 ceramide ([…]) for 60 min and were then incubated with or without cl-CD95L (100 ng/mL) for 24 h. Cell migration was assessed by the Boyden chamber assay. Bars=70 μm. Giemsa-stained cells that migrated to the lower side of the membrane were lysed and absorbance at 560 nm was recorded. Values represent the means and SEM of three independent experiments (*p<0.05).
as §2

Series [4] has the same test system. Briefly: Cytotoxicity of exogenous C16:0 ceramide. In kind it is cell-based, human. The conditions noted are these: 1 μM.
For series [5], the system named is CD95-mediated PI3K signaling pathway. Briefly: Akt serine 473 phosphorylation (CD95-mediated PI3K signaling). The class given is cell-based. On the procedure:
Cells were lyzed for 30 min at 4° C. in lysis buffer (25 mM HEPES pH 7.4, 1% (v/v) Triton X-100, 150 mM NaCl, and 2 mM EGTA supplemented with a mixture of protease inhibitors). Protein concentration was determined by the bicinchoninic acid method (Pierce, Rockford, Ill., USA) according to the manufacturer's protocol. Proteins were resolved by 8, 10, or 12% SDS-PAGE and transferred to a nitrocellulose membrane (GE Healthcare, Buckinghamshire, UK). The membrane was blocked for 15 min with TBST (50 mM Tris, 160 mM NaCl, and 0.05% (v/v) Tween 20, pH 7.4) containing 5% (w/v) dried skimmed milk (TBSTM), and was then incubated overnight at 4° C. with the primary antibody diluted in TBSTM. The membrane was washed with TBST and was then incubated with peroxidase-labeled anti-mouse IgG1 or IgG2a (CliniSciences, Nanterre, France) for 45 min. Proteins were visualized using the enhanced chemiluminescence substrate kit (ECL RevelBlOt®, Ozyme, Saint Quentin en Yvelines, France).

For series [6], the system named is mesenchymal breast cancer cells. Briefly: Membrane fluidity by EPR, mesenchymal breast cancer cells. In kind it is cell-based, human. The conditions noted are these: for CD95-mediated increase in membrane fluidization: 1 μM pre-incubation 60 min, then cl-CD95L 100 ng/mL 30 min. On the procedure:
FIG. 1. Treatment of mesenchymal breast cancer cells with a non-toxic amount of exogenous C16:0 ceramide reduces plasma membrane fluidity and prevents basal and CD95-mediated cell migration. A. The indicated cells were pre-incubated with or without a non-cytotoxic dose (1 μM) of C16:0 ceramide (C16-Cer) for 60 min, and were then incubated with or without cl-CD95L (100 ng/mL) for 30 min. Membrane fluidity was assessed by EPR. Values are means±SEM of four independent experiments (*, p<0.05; ns, not significant). B. Indicated cells were pretreated with or without C16:0 ceramide ([…]) for 60 min and were then incubated with or without cl-CD95L (100 ng/mL) for 24 h. Cell migration was assessed by the Boyden chamber assay. Bars=70 μm. Giemsa-stained cells that migrated to the lower side of the membrane were lysed and absorbance at 560 nm was recorded. Values represent the means and SEM of three independent experiments (*p<0.05). Membrane fluidity was determined by a spin-labeling method using EPR, as previously described^27. Briefly, plasma membranes of living cells were labeled by incubating cells for 15 min at 37° C. with 12-doxyl stearic acid (36 μg/mL), a fatty acid with a stable nitroxide radical ring at the C-12 position. Cells were then washed twice with PBS to remove excess 12-doxyl stearic acid and EPR spectra of the labeled samples were acquired at ambient temperature on a Bruker Elexsys EPR spectrometer operating at 3509.25 G center field, 20 mW microwave power, 9.86 GHz microwave frequency, 1.77 G modulation amplitude, and 100 kHz modulation frequency. Fluidity of the spin-labeled membranes was quantified by calculating the S parameter. An increase in the S parameter reflects a decrease in membrane fluidity, and vice versa.

The test system of a further series is CerS. The conditions noted are these: cited from earlier work.
For series [7], the system named is epithelial cell line MCF7. Briefly: Membrane fluidity by EPR, MCF7. The class given is cell-based, human. The conditions noted are these: MCF7, non-cytotoxic concentration, 48 hours. On the procedure:
as §1

The test system of series [8] is epithelial cell line MCF7. Briefly: Boyden chamber cell migration, MCF7. In kind it is cell-based, human. The conditions noted are these: MCF7, non-cytotoxic concentration. On the procedure:
as §2

In another series the test system is NMuMG cells. The conditions noted are these: cited from earlier work.

“Also recorded” adds a separate entry of the source.

Consider `CCCCCCCCC1CC1CCCCCCCC(=O)OCCOCCOC` (centres unmarked) [A2C], for which the basal membrane fluidity entry with MDA-MB-231 cells [1] is “significantly enhanced”. Also, the “CD95-mediated increase in plasma membrane fluidity” value with MDA-MB-231 cells [1] (then cl-CD95L) is recorded as “significantly enhanced”. In the series with MDA-MB-231 cells [2], the CD95-mediated migration result is recorded as “stimulated”.

Take `CCCCCCCCCCCCC/C=C/[C@@H](O)[C@H](CO)NC(C)=O` [C2-ceramide]: the “migration of lung cancer cells in response to nicotine” value in the series on lung cancer cells is reported as “inhibit”.

In the case of `CCCCCCCCCCCCC/C=C/[C@@H](O)[C@H](CO)NC(=O)CCCCCCCCCCCCCCC` [C16-ceramide, N-palmitoyl-D-sphingosine], the basal migration entry in series [3] was “impaired”; in series [3] (listed as C16:0 ceramide), “prevents”. Further, the CD95-mediated migration result in series [3] is “impaired; also recorded: inhibited”; in [3] (listed as C16:0 ceramide), “prevents”. Further, the cytotoxicity result in series [4] is “non-cytotoxic”. Further, in series [5], the “CD95-mediated PI3K signaling pathway (phosphorylation at serine 473 of Akt)” value is recorded as “did not affect”. Further, the “CD95-mediated increase in membrane fluidization” value is recorded as “inhibited” in series [6] and “completely inhibited” in [6] (listed as C16:0 ceramide). The “basal S parameter” value in series [6] (non-cytotoxic concentration (1 μM), increase in S = decrease in fluidity) was “slightly increased”. Moreover, the plasma membrane fluidity result in series [6] (non-toxic amount of exogenous C16:0 ceramide) is listed as “reduces”.

On to `CCCC[C@@H](C)[C@@H](OC(=O)C[C@@H](CC(=O)O)C(=O)O)[C@H](C[C@@H](C)C[C@H](O)CCCC[C@@H](O)C[C@H](O)[C@H](C)N)OC(=O)C[C@@H](CC(=O)O)C(=O)O` [FB1, Fumonisin B1], for which the CerS activity result in the series with CerS is “selectively inhibits”. Further, in series [7], the CD95-induced membrane fluidity entry is given as “slightly, but significantly, increased” and the basal membrane fluidity entry is recorded as “slightly, but significantly, increased”. Moreover, in series [8], the CD95-mediated cell migration entry is recorded as “enhanced” and the basal cell migration result was “enhanced”.

On to gangliotetraosylceramide [Gg4], for which, in the series with NMuMG cells, the “reversal of TGF-β-induced EMT” value is “does”.
